Experimental data reported in ChEMBL document CHEMBL5154648, “Antitumor activity of novel POLA1-HDAC11 dual inhibitors” (Eur J Med Chem, 2022).
Calls of active or inactive are those of the source. No cut-off for these calls is given here.

How the values were obtained:
[1] = Antitumor activity against human H460-R9A cells xenografted in mouse assessed as tumor growth inhibition at 50 mg/kg, po qd administered 5 times a week for 3 to 4 weeks; format: functional; conditions: time 3-4 weeks, read-out: TGI
[2] = Induction of cell cycle arrest in human H460-R9A cells assessed as accumulation of cells at S phase at 2.8 uM after 72 hrs by flow cytometry (reference value: 34.5%); format: functional
[3] = Induction of cell cycle arrest in human H460-R9A cells assessed as accumulation of cells at G0/1 phase at 2.2 uM after 72 hrs by flow cytometry (reference value: 50.1%); format: functional
NCI-H460 [4] = experiment: Induction of cell cycle arrest in human NCI-H460 cells assessed as accumulation of cells at sub-G1 phase at 0.12 uM after 72 hrs by flow cytometry (reference value: 1.1%); format: functional
[5] = Antitumor activity against human H460-R9A cells xenografted in mouse assessed as tumor growth inhibition at 20 mg/kg, po qd administered […] for 3 to 4 weeks; format: functional; conditions: time 3-4 weeks, read-out: TGI
MM473 = experiment: Induction of cell cycle arrest in human MM473-Luc cells assessed as accumulation of cells at sub-G1 phase at 1.4 uM after 72 hrs by flow cytometry (reference value: 1.3%); format: functional
[6] = molecular target: T1, Histone deacetylase 11 (Homo sapiens) (UniProt Q96DB2); experiment: Inhibition of HDAC11 in human A2780 cells at 0.1 to 0.4 uM assessed as induction of p53 acetylation and measured by Western blot analysis; format: cell-based; conditions: dose 0.1-0.4 µM
T1 sequence (whole entry): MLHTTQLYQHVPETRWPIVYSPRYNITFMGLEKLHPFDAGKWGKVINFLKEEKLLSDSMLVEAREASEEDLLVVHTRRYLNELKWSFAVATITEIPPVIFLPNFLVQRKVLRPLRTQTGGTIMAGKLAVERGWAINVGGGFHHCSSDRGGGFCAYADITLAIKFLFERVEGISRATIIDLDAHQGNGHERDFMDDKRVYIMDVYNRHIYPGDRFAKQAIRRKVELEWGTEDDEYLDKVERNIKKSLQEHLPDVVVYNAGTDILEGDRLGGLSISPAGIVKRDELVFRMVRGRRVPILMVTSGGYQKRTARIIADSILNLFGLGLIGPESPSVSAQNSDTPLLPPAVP

A2780 = experiment: Induction of cell cycle arrest in human A2780 cells assessed as accumulation of cells at sub-G1 phase at 0.95 uM after 72 hrs by flow cytometry (reference value: 1.6%); format: functional
NCI-H460 [7] = experiment: Induction of cell cycle arrest in human NCI-H460 cells assessed as accumulation of cells at G2/M phase at 0.26 uM after 72 hrs by flow cytometry (reference value: 21.1%); format: functional

Compound O=C(O)C=Cc1ccc(-c2ccc(OCC(=O)NO)c(C34CC5CC(CC(C5)C3)C4)c2)cc1 has an inhibition in vivo at 50 mg/kg [1] of 38% and an Activity [2] of 37.4%.

In the case of O=C(O)C=Cc1ccc(-c2ccc(O)c(C34CC5CC(CC(C5)C3)C4)c2)cc1, the Activity [3] is reported as 22.8%, the Activity (NCI-H460 [4]) is reported as 12.4% and the inhibition in vivo at 20 mg/kg [5] is reported as 0%.

For CC(Oc1ccc(-c2ccc(C=CC(=O)O)cc2)cc1C12CC3CC(CC(C3)C1)C2)C(=O)NO (centres undefined), the Activity (MM473) was 10.2%, the inhibition [6] was “Active” and the Activity (A2780) was 23%. For the same compound, the Activity (NCI-H460 [7]) was 7.8%.
